Laboratory results published in publication PMC7586344, “Discovery of Novel pERK1/2- or β-Arrestin-Preferring 5-HT1A Receptor-Biased Agonists: Diversified Therapeutic-like versus Side Effect Profile” (Journal of Medicinal Chemistry, 2020).

Key:
D4.4 = target: T1, D4.4 (Homo sapiens, UniProt P21917); assay: Off-target binding screen; settings: read-out: % Inhibition of Control Specific Binding; for inhibition at 0.001 µM: 1 nM; for inhibition at 0.01 µM: 10 nM; for inhibition at 0.1 µM: 100 nM; for inhibition at 1 µM: 1000 nM
T1 construct: Eurofins Pharma Discovery Services (contract assay)
T1 sequence (P21917 1-419): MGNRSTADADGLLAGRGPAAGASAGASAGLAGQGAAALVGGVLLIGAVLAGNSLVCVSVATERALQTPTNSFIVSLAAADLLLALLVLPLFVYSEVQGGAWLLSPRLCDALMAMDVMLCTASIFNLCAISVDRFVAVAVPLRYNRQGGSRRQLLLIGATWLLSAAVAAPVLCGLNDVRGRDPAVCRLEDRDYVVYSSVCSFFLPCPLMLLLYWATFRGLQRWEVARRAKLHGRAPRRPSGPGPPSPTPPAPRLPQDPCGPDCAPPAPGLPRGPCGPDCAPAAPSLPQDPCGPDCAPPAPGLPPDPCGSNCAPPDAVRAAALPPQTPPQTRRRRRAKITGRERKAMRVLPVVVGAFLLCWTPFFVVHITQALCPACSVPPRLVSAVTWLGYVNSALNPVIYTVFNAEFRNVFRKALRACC

M5 = target: T2, M5 (Homo sapiens, UniProt P08912); assay: Off-target binding screen; settings: read-out: % Inhibition of Control Specific Binding; for inhibition at 1 µM: 1000 nM
T2 construct: Eurofins Pharma Discovery Services (contract assay)
T2 sequence (P08912 1-532): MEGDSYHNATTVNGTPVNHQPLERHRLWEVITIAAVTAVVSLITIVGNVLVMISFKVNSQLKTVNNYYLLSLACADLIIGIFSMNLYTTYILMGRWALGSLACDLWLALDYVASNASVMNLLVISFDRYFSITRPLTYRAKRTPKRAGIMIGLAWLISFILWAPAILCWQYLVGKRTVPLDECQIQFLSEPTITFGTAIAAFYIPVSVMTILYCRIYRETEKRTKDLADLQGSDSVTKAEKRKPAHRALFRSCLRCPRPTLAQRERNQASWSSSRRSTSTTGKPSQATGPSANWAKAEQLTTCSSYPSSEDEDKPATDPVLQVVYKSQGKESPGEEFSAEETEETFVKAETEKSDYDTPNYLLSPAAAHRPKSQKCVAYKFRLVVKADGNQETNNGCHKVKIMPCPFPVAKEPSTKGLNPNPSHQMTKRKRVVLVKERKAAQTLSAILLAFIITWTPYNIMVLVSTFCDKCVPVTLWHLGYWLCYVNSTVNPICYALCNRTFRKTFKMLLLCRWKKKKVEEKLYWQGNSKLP

BZDp (TSPO) = target: T3, BZDp (TSPO) (Homo sapiens, UniProt P30536); assay: Off-target binding screen; settings: 1000 nM, read-out: % Inhibition of Control Specific Binding
T3 construct: Eurofins Pharma Discovery Services (contract assay)
T3 sequence (P30536 whole entry): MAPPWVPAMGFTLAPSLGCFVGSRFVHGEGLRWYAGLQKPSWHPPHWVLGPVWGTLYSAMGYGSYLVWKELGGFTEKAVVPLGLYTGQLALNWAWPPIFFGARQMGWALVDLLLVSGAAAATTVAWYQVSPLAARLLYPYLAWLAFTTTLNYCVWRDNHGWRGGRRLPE

Intrinsic clearance = assay type: in vitro ADME; settings: rat, rat liver microsomes, pH 7.4
α1D = target: T4, α1D (Homo sapiens, UniProt P25100); assay: Off-target binding screen; settings: read-out: % Inhibition of Control Specific Binding; for inhibition at 0.01 µM: 10 nM; for inhibition at 0.1 µM: 100 nM; for inhibition at 1 µM: 1000 nM
T4 construct: Eurofins Pharma Discovery Services (contract screen)
T4 sequence (P25100 1-572): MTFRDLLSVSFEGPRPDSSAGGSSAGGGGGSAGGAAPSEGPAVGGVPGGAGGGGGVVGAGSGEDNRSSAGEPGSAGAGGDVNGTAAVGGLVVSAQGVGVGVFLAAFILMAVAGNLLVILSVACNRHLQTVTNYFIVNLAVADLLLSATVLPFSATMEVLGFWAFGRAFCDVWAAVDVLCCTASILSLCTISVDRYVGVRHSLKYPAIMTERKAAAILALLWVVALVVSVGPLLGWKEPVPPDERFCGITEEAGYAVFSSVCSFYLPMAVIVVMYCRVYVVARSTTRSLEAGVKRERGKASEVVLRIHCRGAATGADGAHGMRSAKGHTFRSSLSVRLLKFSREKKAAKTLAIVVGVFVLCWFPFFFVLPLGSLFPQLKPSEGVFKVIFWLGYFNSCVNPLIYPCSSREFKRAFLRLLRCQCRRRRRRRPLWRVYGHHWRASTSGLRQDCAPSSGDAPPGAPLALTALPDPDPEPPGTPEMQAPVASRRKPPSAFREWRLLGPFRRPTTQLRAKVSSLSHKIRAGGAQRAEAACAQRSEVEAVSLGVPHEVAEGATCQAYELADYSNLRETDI

5-HT2C = target: T5, 5-HT2C (Homo sapiens, UniProt P28335); assay: Off-target binding screen; settings: 1000 nM, read-out: % Inhibition of Control Specific Binding
T5 construct: Eurofins Pharma Discovery Services (contract screen)
T5 sequence (P28335 33-458): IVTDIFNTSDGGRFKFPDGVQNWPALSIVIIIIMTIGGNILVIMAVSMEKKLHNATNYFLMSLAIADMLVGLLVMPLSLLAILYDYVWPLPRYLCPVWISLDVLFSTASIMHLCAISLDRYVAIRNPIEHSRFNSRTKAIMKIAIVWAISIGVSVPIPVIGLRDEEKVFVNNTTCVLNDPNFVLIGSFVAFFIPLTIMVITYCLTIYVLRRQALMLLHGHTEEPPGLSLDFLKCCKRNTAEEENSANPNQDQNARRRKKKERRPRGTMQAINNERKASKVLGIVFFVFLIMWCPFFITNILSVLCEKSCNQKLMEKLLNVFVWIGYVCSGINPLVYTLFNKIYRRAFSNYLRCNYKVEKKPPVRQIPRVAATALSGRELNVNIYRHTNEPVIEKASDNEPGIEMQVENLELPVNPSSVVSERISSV

H2 = target: T6, H2 (Homo sapiens, UniProt P25021); assay: Off-target binding screen; settings: 1000 nM, read-out: % Inhibition of Control Specific Binding
T6 construct: Eurofins Pharma Discovery Services (contract assay)
T6 sequence (P25021 whole entry): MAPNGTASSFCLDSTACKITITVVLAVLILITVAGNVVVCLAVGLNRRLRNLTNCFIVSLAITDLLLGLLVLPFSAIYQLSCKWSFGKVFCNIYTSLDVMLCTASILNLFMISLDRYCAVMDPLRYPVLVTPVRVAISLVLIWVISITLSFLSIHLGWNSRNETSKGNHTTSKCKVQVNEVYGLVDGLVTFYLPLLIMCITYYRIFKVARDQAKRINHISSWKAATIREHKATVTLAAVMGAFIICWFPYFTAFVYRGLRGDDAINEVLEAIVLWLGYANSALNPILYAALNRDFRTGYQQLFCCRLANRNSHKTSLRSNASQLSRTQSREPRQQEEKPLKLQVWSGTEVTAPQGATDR

α1B = target: T7, α1B (Homo sapiens, UniProt P35368); assay: Off-target binding screen; settings: read-out: % Inhibition of Control Specific Binding; for inhibition at 1 µM: 1000 nM; for inhibition at 0.01 µM: 10 nM; for inhibition at 0.1 µM: 100 nM
T7 construct: Eurofins Pharma Discovery Services (contract screen)
T7 sequence (P35368 1-520): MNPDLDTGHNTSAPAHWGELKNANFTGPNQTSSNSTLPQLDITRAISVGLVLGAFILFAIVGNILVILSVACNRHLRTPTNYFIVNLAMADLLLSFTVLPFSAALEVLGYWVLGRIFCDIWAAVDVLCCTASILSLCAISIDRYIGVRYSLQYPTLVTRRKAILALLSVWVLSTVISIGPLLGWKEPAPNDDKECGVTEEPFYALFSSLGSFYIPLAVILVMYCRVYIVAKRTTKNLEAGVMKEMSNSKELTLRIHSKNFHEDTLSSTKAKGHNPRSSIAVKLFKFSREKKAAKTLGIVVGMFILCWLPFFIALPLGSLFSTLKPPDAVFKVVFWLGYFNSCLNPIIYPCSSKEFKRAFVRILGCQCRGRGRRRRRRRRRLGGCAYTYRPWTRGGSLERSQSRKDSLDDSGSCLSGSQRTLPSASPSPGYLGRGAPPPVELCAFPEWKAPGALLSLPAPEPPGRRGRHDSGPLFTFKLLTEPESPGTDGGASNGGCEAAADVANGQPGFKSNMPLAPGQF

5-HT2B = target: T8, 5-HT2B (Homo sapiens, UniProt P41595); assay: Off-target binding screen; settings: 1000 nM, read-out: % Inhibition of Control Specific Binding
T8 construct: Eurofins Pharma Discovery Services (contract screen)
T8 sequence (P41595 whole entry, species assumed): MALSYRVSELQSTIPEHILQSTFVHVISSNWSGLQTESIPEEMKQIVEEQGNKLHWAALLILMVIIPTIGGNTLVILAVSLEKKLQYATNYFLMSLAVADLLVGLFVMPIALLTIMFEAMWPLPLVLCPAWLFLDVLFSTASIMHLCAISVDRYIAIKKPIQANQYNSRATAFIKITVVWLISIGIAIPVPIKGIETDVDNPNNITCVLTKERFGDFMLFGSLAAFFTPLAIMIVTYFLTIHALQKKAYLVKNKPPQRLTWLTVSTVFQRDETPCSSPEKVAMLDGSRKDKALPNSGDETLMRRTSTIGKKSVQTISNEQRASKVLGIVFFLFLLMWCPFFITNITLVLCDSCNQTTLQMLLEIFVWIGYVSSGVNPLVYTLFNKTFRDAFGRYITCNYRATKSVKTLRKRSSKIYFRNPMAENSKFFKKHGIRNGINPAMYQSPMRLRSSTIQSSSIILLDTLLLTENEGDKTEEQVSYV

Compound | inhibition at 0.001 µM (D4.4) | inhibition at 0.01 µM (D4.4) | inhibition at 0.1 µM (D4.4) | inhibition at 1 µM (D4.4) | inhibition at 1 µM (M5) | inhibition at 1 µM (BZDp (TSPO)) | CLint scaled at […], 50 µM (Intrinsic clearance) | inhibition at 0.01 µM (α1D) | inhibition at 0.1 µM (α1D) | inhibition at 1 µM (α1D) | inhibition at 1 µM (5-HT2C) | inhibition at 1 µM (H2) | inhibition at 1 µM (α1B) | inhibition at 1 µM (5-HT2B) | inhibition at 0.01 µM (α1B) | inhibition at 0.1 µM (α1B) | inhibition at 0.01 µM (M5; 10 nM) | inhibition at 0.1 µM (M5; 100 nM) | inhibition at 0.001 µM (α1D; 1 nM)
O=C(c1ccc(F)c(Cl)c1)N1CCC(F)(CNCCOc2ccccc2)CC1 [Compound 3] | -1% | 8% | 59% | 92% | 3% | -10% | 41.7 mL/min/kg | 19% | 40% | 84% | -15% | -15% | 32% | 11% |  |  |  |  | 
CNc1ccccc1OCCNCC1(F)CCN(C(=O)c2ccc(F)c(Cl)c2)CC1 [Compound 44, (3-Chloro-4-fluorophenyl)(4-fluoro-4-(((2-(2-(methylamino)phenoxy)ethyl)amino)methyl)piperidin-1-yl)methanone] |  |  | 51% | 90% | -1% | -10% | 48.8 mL/min/kg | -1% | 32% | 80% | -9% | -28% |  | 23% | -3% | -6% |  |  | 
O=C(c1ccc(F)c(Cl)c1)N1CCC(F)(CNCCOc2cccc3[nH]ccc23)CC1 [Compound 56, (4-(((2-((1H-Indol-4-yl)oxy)ethyl)amino)methyl)-4-fluoropiperidin-1-yl)(3-chloro-4-fluorophenyl)methanone] | 9% | 48% | 89% | 98% | 54% | -6% | 9.6 mL/min/kg | 23% | 63% |  | 6% | -33% | 69% | 48% | -6% | 11% | 4% | -3% | -7%
